Key:
Type in all cases: in vivo, human
males with ASD [1] = test: Autism Treatment Evaluation Checklist (ATEC), parent questionnaire, SAT-1 trial
Procedure: (§1) Two observational examinations were performed by a clinician at 3 time points: baseline (56±8 days; mean±SEM; before the infusion), 2-days post-infusion, and 6-weeks post-infusion. The two examiner-based metrics were the Autism Diagnostic Observation Schedule, 2nd edition (ADOS-2) with video and audio files recorded on 3 cameras, and the Expressive One Word Picture Vocabulary Testing (EOWPVT). Both of these observational metrics were administered by a trained and certified examiner using approved test materials. Three standardized questionnaires were completed by parents at 3 time points: baseline, 7-days post-infusion, and 6-weeks post-infusion. The three standardized questionnaires completed by parents were the 58-question Aberrant Behavior Checklist (ABC), the 75-item Autism Treatment Evaluation Checklist (ATEC), and the 33-item repetitive behavior questionnaire (RBQ). Parents were asked to complete these three instruments with reference to how their child behaved in the previous 7 days. At the end of the six weeks, we included a 24-question Clinical Global Impression (CGI) questionnaire (FIG. 16). In addition, parents were asked to list the 3 top behaviors or symptoms that they observed to be most changed over the previous 6-weeks. To minimize the misinterpretation of natural day-to-day variations in symptoms, parents were asked to mark a symptom as changed in the 6-week CGI only if it had lasted for at least 1 week.
(§2) For the test dose, 50 mg of suramin hexasodium (Bayer Pharmaceuticals, Inc.) in 5 mL of saline (experimental arm, 5 patients), or 5 mL of saline only (control arm, 5 patients) were given by slow intravenous (IV) push over 3 minutes, followed by a 10 mL flush of saline. One hour after the test dose, vital signs were repeated and a single infusion of either suramin (20 mg/kg, minus the 50 mg test dose, in 50 mL, up to a maximum of 1 gram) or saline (50 mL IV) was given over 30 minutes, followed by a 10 mL flush of saline.
(§3) Behavioral and neurological effects of treatment were assessed primarily by the examiner-based ADOS-2 protocol scores and standardized vocabulary testing (Expressive One Word Picture Vocabulary Test, EOWPVT), with secondary evaluation via parent-based assessments (Aberrant Behavior Checklist (ABC) scores, Autism Treatment Evaluation Checklist (ATEC) scores, Clinical Global Impression of Improvement (CGI) scores, and Repetitive Behavior Questionnaire (RBQ) scores). See General Methods for information related to behavioral test administration. Prior to the study, diagnosis of each of the enrolled participants was confirmed by ADOS-2 comparison scores of ≥7, and non-verbal IQ was tested by Leiter-3 examination. Examiner-based outcomes (ADOS and EOWPVT) were assessed at 2-days and 6-weeks after the infusion. Parent-based outcomes (ABC, ATEC, CGI, and RBQ) were assessed at 7-days and 6-weeks after the infusion. To minimize the effects of natural behavioral variability, the parents were instructed to mark a behavior as changed only if it was persistently changed for at least 1 week.
Each child was used as their own control to examine before and after treatment effects from Example 1 in a paired t-test design for the analysis of the ADOS, EOWPVT, ABC, ATEC, RBQ (FIGS. 4-11 show individual analyses), and blood and urine safety data (FIGS. 2 and 3 show individual analyses). Paired, non-parametric analysis was by Wilcoxon signed-rank sum test. Categorical data, such as the presence or absence of adverse events or historical symptoms was analyzed by Fisher's exact test. Two-way ANOVA (treatment×time), with Sidak post hoc correction, was used to analyze the 6-week summaries captured by the ADOS, CGI, and additional blood and urine safety analysis. Cohen's d—calculated as the mean difference of the paired, within-subject scores before and after treatment, divided by the standard deviation of the differences—was used as an estimate of effect size.

males with ASD [2] = test: Expressive One Word Picture Vocabulary Test (EOWPVT), SAT-1 trial
Procedure: as §1, with “At the end of the six weeks, we included a 24-question Clinical Global Impression (CGI) questionnaire (FIG. 16). In addition, parents were asked to list the 3 top behaviors or symptoms that they observed to be most changed over the previous 6-weeks. To minimize the misinterpretation of natural day-to-day variations in symptoms, parents were asked to mark a symptom as changed in the 6-week CGI only if it had lasted for at least 1 week.” left out
Behavioral and neurological effects of treatment were assessed primarily by the examiner-based ADOS-2 protocol scores and standardized vocabulary testing (Expressive One Word Picture Vocabulary Test, EOWPVT), with secondary evaluation via parent-based assessments (Aberrant Behavior Checklist (ABC) scores, Autism Treatment Evaluation Checklist (ATEC) scores, Clinical Global Impression of Improvement (CGI) scores, and Repetitive Behavior Questionnaire (RBQ) scores). […] Examiner-based outcomes (ADOS and EOWPVT) were assessed at 2-days and 6-weeks after the infusion. Parent-based outcomes (ABC, ATEC, CGI, and RBQ) were assessed at 7-days and 6-weeks after the infusion. […]
Each child was used as their own control to examine before and after treatment effects from Example 1 in a paired t-test design for the analysis of the ADOS, EOWPVT, ABC, ATEC, RBQ (FIGS. 4-11 show individual analyses), and blood and urine safety data (FIGS. 2 and 3 show individual analyses). […] Categorical data, such as the presence or absence of adverse events or historical symptoms was analyzed by Fisher's exact test. […]

males with ASD [3] = test: ADOS-2 (Autism Diagnostic Observation Schedule, 2nd edition), SAT-1 trial, single 20 mg/kg IV suramin infusion; conditions: for Difference from baseline (mean ± sd) / d (Cohen's d): 45 days after treatment
Procedure: as §1
All children met DSM-5 diagnostic criteria for autism spectrum disorders, and received confirmatory testing by Autism Diagnostic Observation Schedule, 2nd edition (ADOS-2) examination. Inclusion criteria included males, ages 4-17 years, living in the San Diego, Calif. region, with a confirmed diagnosis of ASD.
as §2, §3
Each child was used as their own control to examine before and after treatment effects from Example 1 in a paired t-test design for the analysis of the ADOS, EOWPVT, ABC, ATEC, RBQ (FIGS. 4-11 show individual analyses), and blood and urine safety data (FIGS. 2 and 3 show individual analyses). Paired, non-parametric analysis was by Wilcoxon signed-rank sum test. Categorical data, such as the presence or absence of adverse events or historical symptoms was analyzed by Fisher's exact test. […]

[4] = ATEC Language, 7 days after treatment
[5] = ATEC Language, 45 days after treatment
[6] = ATEC Sociability, 7 days after treatment
[7] = ATEC Total, 7 days after treatment
[8] = EOWPVT Vocabulary, 45 days after treatment

For `Cc1ccc(C(=O)Nc2ccc(S(=O)(=O)O)c3cc(S(=O)(=O)O)cc(S(=O)(=O)O)c23)cc1NC(=O)c1cccc(NC(=O)Nc2cccc(C(=O)Nc3cc(C(=O)Nc4ccc(S(=O)(=O)O)c5cc(S(=O)(=O)O)cc(S(=O)(=O)O)c45)ccc3C)c2)c1` [Suramin, suramin], which “Difference from baseline (mean ± sd)” value (males with ASD [1]; [4]) is on record?
The value was −2.2 ± 1.5.

And the “d (Cohen's d)” value (males with ASD [1]; [4])?
The value was 1.4.

What about the “Difference from baseline (mean ± sd)” value (males with ASD [1]; [5]) of the same compound?
Its value is −2.0 ± 1.4.

And the “d (Cohen's d)” value (males with ASD [1]; [5])?
The value was 1.4.

What about the “Difference from baseline (mean ± sd)” value (males with ASD [1]; [6]) of the same compound?
The value was −3.6 ± 2.6.

And the “d (Cohen's d)” value (males with ASD [1]; [6])?
Its value is 1.4.

And the “Difference from baseline (mean ± sd)” value (males with ASD [1]; [7])?
The value was −10 ± 7.7.

And the “d (Cohen's d)” value (males with ASD [1]; [7])?
The value was 1.3.

What about the “Difference from baseline (mean ± sd)” value (males with ASD [2]; [8]) of the same compound?
The value was −4.2 ± 8.3.

What about the “d (Cohen's d)” value (males with ASD [2]; [8]) of the same compound?
Its value is −0.51.

What about the EOWPVT scores (males with ASD [2]; after single 20 mg/kg IV dose) of the same compound?
Its EOWPVT scores is “did not change”.

And the “mean ADOS comparison score” value (males with ASD [3]; 6-weeks after suramin (8.6±0.4 at baseline))?
Its value is 7.0±0.3.

What about the “ADOS-2 comparison scores improved by an average of (mean±SD)” value (males with ASD [3]; 6-weeks, suramin treatment group, n=5) of the same compound?
The value was −1.6±0.55 points.

What about the “2-day ADOS scores” value (males with ASD [3]; 2 days after suramin (FIG. 10A)) of the same compound?
Its value is “no change”.

And the “Difference from baseline (mean ± sd)” value (males with ASD [3]; ADOS-2 Comparison)?
Its value is −1.6 ± 0.55.

And the “d (Cohen's d)” value (males with ASD [3]; ADOS-2 Comparison)?
Its value is 2.9.

What about the “Difference from baseline (mean ± sd)” value (males with ASD [3]; ADOS-2 Raw) of the same compound?
Its value is −4.6 ± 1.9.

And the “d (Cohen's d)” value (males with ASD [3]; ADOS-2 Raw)?
The value was 2.4.

And the “Difference from baseline (mean ± sd)” value (males with ASD [3]; ADOS-2 Restr/Rep (restricted or repetitive behaviors))?
The value was −1.4 ± 0.89.

And the “d (Cohen's d)” value (males with ASD [3]; ADOS-2 Restr/Rep)?
Its value is 1.6.

What about the “Difference from baseline (mean ± sd)” value (males with ASD [3]; ADOS-2 Social) of the same compound?
The value was −3.2 ± 1.9.

What about the “d (Cohen's d)” value (males with ASD [3]; ADOS-2 Social) of the same compound?
The value was 1.7.

Source: patent US20190358181A1, “METHODS FOR AUTISM SPECTRUM DISORDER PHARMACOTHERAPY” (priority 2017, published 2019)
